Measured values from patent US20080227829A1, “Neurogenic compounds” (priority 2007, published 2008).
Entries after “also recorded” stand apart in the source; their conditions may differ.

Columns and labels:
mice = test: Morris water maze (acquisition training and probe trial), long-term injection study; type: in vivo
Protocol: A six-week study was conducted in which apigenin was administered by injection to mice at two different doses in conjunction with or without daily voluntary exercise (running). Behavioral testing was administered after 30 days of injections using the Morris water maze and object recognition test. Apigenin was dissolved in [10:90] Tween 80: 0.9% NaCl. All compounds were purchased from commercial sources. Aliquots of Tween 80: 0.9% NaCl solutions were used for testing in the in vivo model. Sixty-four mice (age seven wks) were divided into four test groups (sixteen per group) and received either: Injections were administered intraperitoneally (i.p.) for forty-two days total. In addition to test injections, daily i.p. injections of 5-bromo-2-deoxyuridine (BrdU) [10 mg/ml] were administered for the first eight days at a dose of 50 mg/kg. Within each test group, eight mice were randomly selected to receive running exercise. These thirty-two mice (eight mice per injection group) were transferred daily (on Days 1-40 of the study) from their normal static housing to an automated voluntary running wheel cage for two hours a day. Non-running mice remained in their static cages throughout the study. On Day 31, all mice began acquisition training on the Morris water maze immediately following their i.p. injection. See, e.g., Morris, Developments of a water-maze procedure for studying spatial learning in the rat, J. Neurosci. Methods, 11(1) (1984), hereby incorporated herein by reference. Mice were trained for nine consecutive days, receiving two trials a day using a hidden platform paradigm. The platform was located in the northwest (NW) quadrant of the water maze. To measure the effect of apigenin (with or without exercise) on learning, latency to platform was recorded for each trial. After daily training on the water maze, non-running mice were returned to their normal static housing while running mice were placed into their running wheel cages for two hours. On Day 9 of the water maze training, the mice received a probe trial 4 hours after the last training. During the probe trial the platform was removed and retention of memory of the target NW quadrant was recorded.

b-catenin = test: Western blot of phosphorylated signaling mediators; type: cell-based; details: adult neural progenitor cells; negative controls show the same results
Protocol: (§1) Adult neural progenitor cells were grown in proliferating conditions (N2 containing FGF2) in six-well plates for at least twenty-four hours. Before collecting cell lysates, the media was removed and replaced with DMEM/F12 for two hours (DMEM/F12 is defined media which lacks insulin and FGF2, two factors known to trigger various cell signaling pathways). In this key “starvation” step, the activation of various downstream mediators returned to steady-state levels. Cells were starved for two hours and the time zero data were collected. One of the following was added and the lysates collected at various time-points: (1) N2 only or (−) DMSO (negative control); (2) (+) DMSO (also a negative control); (3) apigenin; or (4) RA+FSK (positive control). Two time-course experiments were then carried out. The first was an early time-course to measure the acute effects of apigenin at zero minutes, ten minutes, thirty minutes, two hours, six hours, and twenty-four hours. The second experiment was a late time-course to measure long-term effects of apigenin at zero, one, two, three, and four days; the results of this experiment are not discussed here. Cell lysates were then loaded and transferred to Western Blots and the membranes hybridized with antibodies against the phosphorylated and unphosphorylated forms of each protein. The data results with the unphosphorylated form of the protein are not discussed here. The data discussed with respect to the phosphorylated protein are representative of at least three independent experiments and are normalized to the unphosphylated forms (internal control).

CREB = test: Western blot of phosphorylated signaling mediators; type: cell-based; details: adult neural progenitor cells; negative controls show the same results
Protocol: as §1

ERKs = test: Western blot of phosphorylated signaling mediators; type: cell-based; details: adult neural progenitor cells; negative controls show the same results
Protocol: as §1

GSK3b = test: Western blot of phosphorylated signaling mediators; type: cell-based; details: adult neural progenitor cells; negative controls show the same results
Protocol: as §1

AKT = test: Western blot of phosphorylated signaling mediators; type: cell-based; details: 5 mM apigenin; by six hours; adult neural progenitor cells starved two hours; normalized to unphosphorylated form
Protocol: as §1

dentate gyrus [1] = test: BrdU/DAB quantification of dividing cells in the dentate gyrus after long-term study; type: in vivo, mice; details: for number of dividing cells (BrdU+) in the dentate gyrus: 25 mg/kg i.p. 42 days; for number of dividing cells (BrdU+) in the dentate gyrus, overall statement: running and non-running groups
Protocol: Injections were administered intraperitoneally (i.p.) for forty-two days total. In addition to test injections, daily i.p. injections of 5-bromo-2-deoxyuridine (BrdU) [10 mg/ml] were administered for the first eight days at a dose of 50 mg/kg. Within each test group, eight mice were randomly selected to receive running exercise. These thirty-two mice (eight mice per injection group) were transferred daily (on Days 1-40 of the study) from their normal static housing to an automated voluntary running wheel cage for two hours a day. Non-running mice remained in their static cages throughout the study. After the long-term study of Example 1 and all behavioral testing was concluded (Day 42), mice were perfused using 4% paraformaldehyde and their brain tissue was extracted. Brain tissue was sectioned and stained for BrdU/DAB quantification of dividing cells. A second immunofluorescence stain was used for phenotyping of the newly dividing cells. Brain sections were also taken and stained with Brdu/NeuN/GFAP. Phenotype analysis was completed to determine the percentage of dividing cells co-labeled with NeuN, a marker used to identify mature neurons. Using the percentage, it was possible to calculate the total number of BrdU/NeuN co-labeled cells in the dentate gyrus.

dentate gyrus [2] = test: BrdU/NeuN/GFAP phenotyping of newly dividing cells (neurogenesis) in the dentate gyrus; type: in vivo, mice; details: for number of BrdU+ cells co-labeled with NeuN (new neurons) in the dentate gyrus: 25 mg/kg i.p. 42 days, runners, vs all other groups, p<0.001
From the text: After the long-term study of Example 1 and all behavioral testing was concluded (Day 42), mice were perfused using 4% paraformaldehyde and their brain tissue was extracted. Brain tissue was sectioned and stained for BrdU/DAB quantification of dividing cells. A second immunofluorescence stain was used for phenotyping of the newly dividing cells. Brain sections were also taken and stained with Brdu/NeuN/GFAP. Phenotype analysis was completed to determine the percentage of dividing cells co-labeled with NeuN, a marker used to identify mature neurons. Using the percentage, it was possible to calculate the total number of BrdU/NeuN co-labeled cells in the dentate gyrus.

With `O=c1cc(-c2ccc(O)cc2)oc2cc(O)cc(O)c12` [apigenin] the “probe trial: frequency into target quadrant” value (mice; 12.5 mg/kg i.p., non-runners, p<0.06) was “trend toward significance”, the “latency to platform (acquisition phase)” value (mice; 12.5 mg/kg i.p., non-runners, vs control) was “No significant differences” and the “probe trial: frequency into target quadrant” value (mice; 12.5 mg/kg i.p., runners, p<0.001) was “significant preference for the target quadrant”. For the same compound, the “latency to platform (acquisition phase)” value (mice; 12.5 mg/kg i.p., runners, vs control runners and control non-runners, p<0.05) was “significantly shorter latencies”, the “probe trial: frequency into target quadrant” value (mice; 25 mg/kg i.p., non-runners, p<0.05) was “significant preference for the target quadrant” and the “latency to platform (acquisition phase)” value (mice; 25 mg/kg i.p., non-runners, vs control runners, p<0.05) was “significantly different from the control runners”. For the same compound, the “probe trial: frequency into target quadrant” value (mice; 25 mg/kg i.p., runners, p<0.06) was “strong preference for entering the target quadrant more frequently than other quadrants, although this is not statistically significant”, the “latency to platform (acquisition phase)” value (mice; 25 mg/kg i.p., runners, vs control runners and control non-runners, p<0.05) was “significantly shorter latencies” and the “probe trial: total duration of time spent in the quadrants” value (mice; 12.5 and 25 mg/kg i.p., runners and non-runners) was “no significant differences among the groups”. For the same compound, the “probe trial: frequency in quadrants (FIG. 1 legend)” value (mice; apigenin treated mice, runners and non-runners) was “entered the target quadrant more frequently than all other quadrants”, the “learning (summary of water maze)” value (mice; with or without exercise) was “increases learning with or without exercise” and the phosphorylation of b-catenin (b-catenin) was “non-specific effects”. For the same compound, the “phosphorylation of CREB” value (CREB) was “non-specific effects”, the “phosphorylation of ERKs” value (ERKs) was “non-specific effects” and the “phosphorylation of GSK3b” value (GSK3b) was “non-specific effects”. The “phosphorylation of AKT (pAKT)” value (AKT) was “increased phosphorylation of AKT”, the “number of dividing cells (BrdU+) in the dentate gyrus” value (dentate gyrus [1]; non-runners, vs control non-runners and apigenin 12.5 mg/kg non-runners, p<0.01) was “significant increase in the number of dividing cells” and the “number of dividing cells (BrdU+) in the dentate gyrus” value (dentate gyrus [1]; runners, vs running control, p<0.05) was “significantly more dividing cells”. For the same compound, the “number of dividing cells (BrdU+) in the dentate gyrus, overall statement” value (dentate gyrus [1]) was “increases”, the “number of dividing cells (BrdU+) in the dentate gyrus, overall statement” value (dentate gyrus [1]; listed as Apigenin) was “increased BrdU labeling in both running and non-running groups” and the “number of BrdU+ cells co-labeled with NeuN (new neurons) in the dentate gyrus” value (dentate gyrus [2]) was “significantly higher number of new neurons than all other mice in the study”. The “number of BrdU+ cells co-labeled with NeuN (new neurons) in the dentate gyrus” value (dentate gyrus [2]; listed as Apigenin) was “significantly more new neurons than all other groups; also recorded: greatest increase in neurogenesis” and the “differentiation of the dividing cells into neurons” value (dentate gyrus [2]; overall statement) was “increases”.
